The target of assay [1] is T1, CCK receptors (Cavia porcellus, UniProt Q63931).
T1 construct: Cortical and pancreatic membranes were prepared as described; from tissue; host or cells: guinea pig pancreas membranes
T1 sequence (Q63931 1-430): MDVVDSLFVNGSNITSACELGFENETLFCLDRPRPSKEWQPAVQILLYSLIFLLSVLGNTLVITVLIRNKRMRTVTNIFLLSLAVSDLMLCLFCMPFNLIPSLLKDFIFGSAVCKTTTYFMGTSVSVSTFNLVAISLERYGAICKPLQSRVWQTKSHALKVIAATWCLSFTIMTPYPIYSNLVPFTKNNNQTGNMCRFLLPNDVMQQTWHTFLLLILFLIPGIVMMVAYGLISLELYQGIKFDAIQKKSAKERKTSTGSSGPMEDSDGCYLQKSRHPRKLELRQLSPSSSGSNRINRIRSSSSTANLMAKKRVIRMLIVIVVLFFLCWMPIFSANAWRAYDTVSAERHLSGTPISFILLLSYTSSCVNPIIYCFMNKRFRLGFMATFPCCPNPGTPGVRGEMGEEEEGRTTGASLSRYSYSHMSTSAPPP
Nature of the assay: Radioligand binding ([125I]Bolton-Hunter CCK8) in guinea pig pancreatic membranes. Particulars: displacement of [125I]BH-CCK8, pancreatic membranes, 37°C for 150 min, Hill analysis; read-out: IC₅₀ (uM) pancreas.
Protocol: EGTA, HEPES, BSA were purchased from Sigma Chemical Co. (St. Louis, MO). […] Male ginea pigs, 250 to 325 g, were obtained from Scientific Small Animal Laboratory and Farm (Arlington Heights, IL). Collangenase, code CLSPA was purchased from Worthington (Frehold, NJ).
In brief, pancreas and cortex were removed and rinsed with ice-cold saline. Visible fat and connective tissues were removed from the pancreas. Tissues were weighed and homogenized in approximately 25 mL of ice-cold 50 mM Tris-HCl buffer, pH 7.4 at 4°C with a Brinkman Polytron for 30 sec, setting 7. The homogenates were centrifuged for 10 min at 1075 x g and the pellet was discarded. The supernantants were saved and centrifuged at 38,730 x g for 20 min. The resultant pellets were rehomogenized in 25 mL of 50 mM Tris-HCl buffer with a Teflon-glass homogenizer, 5 up and down strokes. The homogenates were centrifuged again at 38,730 x g for 20 min. The pellets were then resuspended in 20 mM HEPES, containing 1 mM EGTA, 118 mM NaCl, 4.7 mM KCl, 5mM MgCl₂, 100 uM bestatin, 3 uM phosphoramidon, pH 7.4 at 22°C with a Teflon-glass homogenizer, 15 up and down strokes. The resuspension volume used for the cortex was 15 mL per g of original wet weight and 60 mL per g for pancreas.
The final BSA concentration was 0.1%. The cortical tissues were incubated at 30°C for 150 min. and pancreatic tissues were incubated at 37°C for 150 min. Incubations were terminated by filtration using Skatron Cell Harvester and SS32 microfiber filter mats. […] IC₅₀s were determined from the Hill analysis.

Assay [2] deals with T2, CCK-B receptors on small cell lung cancer cell lines (Homo sapiens, UniProt P32239).
T2 construct: endogenous in cells; host or cells: NCI-H345 and H209 small cell lung cancer cells
T2 sequence (P32239 1-447): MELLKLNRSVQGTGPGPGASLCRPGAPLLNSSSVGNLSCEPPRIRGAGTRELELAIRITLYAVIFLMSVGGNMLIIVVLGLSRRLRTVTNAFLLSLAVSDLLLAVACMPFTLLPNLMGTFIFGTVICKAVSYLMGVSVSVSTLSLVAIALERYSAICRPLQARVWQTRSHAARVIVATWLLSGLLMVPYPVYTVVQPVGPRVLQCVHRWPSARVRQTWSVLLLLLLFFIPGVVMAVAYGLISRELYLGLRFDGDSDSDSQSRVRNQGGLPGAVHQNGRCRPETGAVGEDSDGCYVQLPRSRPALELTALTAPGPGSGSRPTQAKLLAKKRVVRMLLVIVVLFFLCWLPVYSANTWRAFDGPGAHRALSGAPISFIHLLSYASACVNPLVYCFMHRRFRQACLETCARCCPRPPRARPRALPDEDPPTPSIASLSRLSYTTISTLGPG
In words: Measurement of [Ca++]i changes in NCI-H345 and H209 cell lines (indo-1 fluorescence). In kind it is cell-based. Particulars: read-out: Intrinsic Activity Relative to CCK-8.
Protocol: Protocol for Measuring [Ca++]i Changes in NCI-H345 and H209 Cell Lines
Culture conditions were as described (D.G. Yoder, T.W. Moody, Peptides, 8, 103 (1987), except that the medium was modified to RPMI 1640 with 2.5% fetal bovine serum (heat inactivated), 5µg/l sodium selenite, 5 mg/l human transferrin, 5 mg/l insulin, penicillin (100 U/l) and streptomycin (100 µg/l). To measure intracellular Ca²⁺, cells were loaded with 1 µM of indo-1,AM, for 60 min at 37°C. The cells were centrifuged at 750 x g for 5 min and resuspended in 40 mL Buffer F (Dulbecco's phosphate buffered saline containing 0.1% glucose, pH 7.4). The cells were counted then twice washed by centrifugation. The final pellet was resuspended (approximately 1 x 10⁶ cells/mL) in Buffer F. The cells were thermally equilibrated in a thermostated cuvette (37°C) for 2 min prior to base-line fluorescence measurement. Fluorescence measurements were made with an SLM 8000C spectrofluorimeter equipped with magnetic microstirrer and polarizing filters. Measurements with indo-1-loaded cells were obtained at excitation wavelength of 350 nm and emission wavelength of 480 and 405 nM and the time interval for the measurements was 0.5 sec.

For `CCC[C@H]1CCN(C(=O)[C@@H]2Cc3c[nH]c4cccc(c34)CC(=O)N2)[C@@H]1C(=O)N[C@@H](CC(=O)O)C(=O)N[C@@H](Cc1ccccc1)C(N)=O` [Example 48, Ctp-Tpp-Asp-Phe-NH₂], the IC50 in assay [1] amounted to 3.5 µM. The Emax in assay [2] was 103%.

(Values after patent EP0405506A1, “Tetrapeptide type-B CCK receptor ligands” (ABBOTT LABORATORIES, priority 1989, dated 1991).)
